Results taken from US20220160669A1, “PARENTERAL NUTRITION FORMULATION” (BAXTER INTERNATIONAL INC., priority 2020, published 2022).

How the values were obtained:
Type in all cases: in vivo, pig
[1] = tested on: Neonatal Yorkshire/Landrace cross bred piglets; assay: Intestinal histomorphology: villus height and crypt depth; set-up: key to Villus (total) / Crypt (total): + denotes a positive effect (compared to standard PN); ++ a very positive effect; − denotes no difference
Procedure: (§1) Neonatal Yorkshire/Landrace cross bred piglets (n=72; six at a time from the same litter, repeating 12 times) were obtained from Oak Hill Genetics (Ewing, Ill.) after 48-hour sow reared for colostrum consumption and iron supplementation.
Formalin-fixed intestinal samples were embedded in paraffin, sliced to approximately 5-μm thickness with a microtome and stained with hematoxylin and eosin (FIG. 6). Villus height, midvillus width, and crypt depth were measured by using a Nikon Optiphot-2 microscope (Nikon, Melville, N.Y.) and ImagePro Express software (Version 4.5; Media Cybernetics, Inc, Silver Spring, Md.) in 8 to 10 well-oriented villi and crypts. Villus surface area (villus height×midvillus width) was also calculated. In addition, intestinal segment circumference was measured to estimate intestinal surface area. The results are provided in FIGS. 7 through 12 (see there for details). […] The Table summarizes the average difference (in % of each Intervention Group (A, B, C, D) versus the PN Group) of the villus height and the crypt depth in the different sections of the gut, i.e. duodenum, jejunum, ileum and colon. The Intervention Groups show an improved villus height compared to the s-PN Group.

Il-10 = assay: Serum cytokine quantification, Il-10; conditions: 10 mmol/L TPN (Groups A, C, D)
Text: as §1
(§2) The influence of the respective supplements on inflammation was investigated by determining Il-6, Il-1beta, TNF-alpha and Il-10 serum levels in the intervention groups compared to EN and PN according to Milo et al., Effects of Short-Chain Fatty Acid-Supplemented Total Parenteral Nutrition on Intestinal Pro-Inflammatory Cytokine Abundance. Digestive Diseases and Sciences 2002; 47:2049-2055. Jejunal and ileal samples were homogenized in double-distilled water, and the Bradford protein assay (Biorad, Hercules, Calif., USA) was performed on homogenate and plasma samples. Protein (30 μg) from each sample was denatured by boiling, and proteins were separated by size using 12.5% sodium dodecyl sulfate polyacrylamide gel electrophoresis. Separated proteins were transferred to polyvinylidene difluoride membranes (Biorad) using a semidry transfer apparatus (Biorad). Western blot analysis for TNF-alpha, IL-1beta, Il-10 and IL-6 was performed using porcine-specific polyclonal antibodies (Endogen, Woburn, Mass., USA). A mouse anti-pig monoclonal TNF-alpha antibody was used to detect TNF-alpha ([…]). Rabbit anti-pig polyclonal antibodies specific for IL-1beta and IL-6 were used to detect IL-1beta (17,500 kDa), Il-10 (18,600 kDa) and IL-6 (26,000 kDa). Membranes were developed using the Opti-4CN kit (Biorad) and photographed using the FOTO/Analyst Image Analysis System (Fotodyne, Inc., Hartland, Wis., USA). Densitometry of TNF-alpha, IL-1beta, IL-6, and Il-10 was performed using Collage Image Analysis Software 4.0 (Fotodyne, Inc.). Results are shown in FIG. 15 (Il-6), FIG. 16 (Illbeta), FIG. 17 (TNF-alpha) and FIG. 18 (Il-10).

[2] = tested on: Pro-inflammatory cytokines; assay: Pro-inflammatory cytokines, summary (site not stated); set-up: key: + denotes a positive effect (compared to standard PN); ++ a very positive effect; − denotes no difference; conditions: 10 mmol/L in PN, compared to standard PN
Text: as §1, §2

[3] = 10 mmol/L TPN (Groups A, C, D), sum over sections
[4] = 10 mmol/L in PN, all sections, compared to standard PN

For `CCCCCCCCCCCCCCCC(=O)OCC(COC(=O)CCC)OC(=O)CCCCCCCCCCCCCCC` (stereo not shown) [1,2-Dipalmitoyl 3-butyryl glycerol], the “average duodenal crypt length (crypt depth, FIG. 8)” value ([1]; 10 mmol/L TPN) was “gave the best results”, the “average duodenal villous length (FIG. 7)” value ([1]; 10 mmol/L TPN) was “increased villous length compared to the other study groups” and the “average ileal crypt depth (FIG. 11)” value ([1]; 10 mmol/L TPN) was “significant difference”. The “average jejunal crypt depth (FIG. 10)” value ([1]; 10 mmol/L TPN) was “lower”, the “average jejunal villous length (FIG. 9)” value ([1]; 10 mmol/L TPN) was “relatively good results” and the “% Δ from PN, Colon C (crypt depth)” value ([1]; 10 mmol/L TPN (Groups A, C, D)) was “+12%”. For the same molecule, the “% Δ from PN, Duodenum C (crypt depth)” value ([1]; 10 mmol/L TPN (Groups A, C, D)) was “+19%”, the “% Δ from PN, Duodenum V (villus height)” value ([1]; 10 mmol/L TPN (Groups A, C, D)) was “+31%” and the “% Δ from PN, Ileum C (crypt depth)” value ([1]; 10 mmol/L TPN (Groups A, C, D)) was “+15%”. The “% Δ from PN, Ileum V (villus height)” value ([1]; 10 mmol/L TPN (Groups A, C, D)) was “+24%”, the “% Δ from PN, Jejunum C (crypt depth)” value ([1]; 10 mmol/L TPN (Groups A, C, D)) was “+2%” and the “% Δ from PN, Jejunum V (villus height)” value ([1]; 10 mmol/L TPN (Groups A, C, D)) was “+5%”. For the same molecule, the “% Δ from PN, Total Total (crypt + villus)” value ([1]; 10 mmol/L TPN (Groups A, C, D)) was “+110%”, the “% Δ from PN, Total C (crypt depth)” value [1, 3] was “+50%” and the “% Δ from PN, Total V (villus height)” value [1, 3] was “+60%”. For the same molecule, the “Crypt (total)” value [1, 4] was “+”, the “Villus (total)” value [1, 4] was “+” and the “serum levels of Il-10 (FIG. 18)” value (Il-10) was “almost or about as low”. For the same molecule, the Pro-inflammatory cytokines [2] was “+”.
